Results on 3 compounds are retold here after US8012463B2, “Coordination complex of diaminocyclohexaneplatinum(II) with block copolymer containing poly(carboxylic acid) segment and antitumor agent comprising the same” (Toudai TLO, Ltd., priority 2003, dated 2011).

Series [1] has as its system mouse colon 26 (C-26) cell strain. Briefly: Cytotoxicity in vitro, growth inhibition by MTT method. The series is classed as cell-based. Conditions: C-26 cells. As to the method:
Growth inhibiting activities of free CDDP, CDDP micelle, DACH Pt micelle, mixtures of DACH Pt micelle and CDDP micelle at various mixing ratios (1/3, 1/1 and 3/1) against mouse colon 26 (C-26) cell strain were evaluated with MTT method. 5,000 cells were cultured in a 96 well-multiplate supplied with 50 μl of RPMI 1640 medium containing 10% fetal bovine serum. The cells were exposed to drugs for 48 and 72 hours. MTT solution was added, and 150 μl of a solution containing 10 wt % of sodium dodecylsulfate (SDS) supplemented with 0.01M HCl was added after 6 hours. Viability of cells was then measured based on optical density at 570 nm of formazan produced after 24 hours.

The test system of the next series is ascites sarcoma 180. Particulars: cited from earlier work.

What is called IC50 is the midpoint of a concentration-inhibition curve. Higher therefore signals weaker potency in that assay.

Molecules are shown by their SMILES.

With `N.N.[Cl][Pt][Cl]` [Free CDDP, Cisplatin], the values for the IC50 in series [1] (culture time 48 hours) and in series [1] (culture time 72 hours) were 1.5 µg/mL and 0.65 µg/mL, respectively. For `O=C1[O][Pt-2]2([NH2+]C3CCCC[C@H]3[NH2+]2)[O]C1=O` (some centres unmarked) [Pt(oxalato)-(dach)], in the series on ascites sarcoma 180 (experimental animals bearing ascites sarcoma 180), the ED90 entry was “excellent ED90”. In the case of `NC1CCCCC1N.O=C([O-])CC(=O)[O-].[Pt+2]` (centres unmarked) [Pt(malonato)-(dach)], the “therapeutic index relative to Pt(oxalato)-(cis-dach)” value in the series with ascites sarcoma 180 (in vivo) is recorded as “half or less”. Besides, the “ED90 dose compared with Pt(oxalato)-(dach)” value with ascites sarcoma 180 (ratio to Pt(oxalato)-(dach)) is not below 5 times.
